Non-standard residues stand in square brackets, D forms with d. No end group written: not given here.

For series [1] the following is noted: cited from earlier work.
The test system of another series is decorin. The experiment in a line: ChaseABC release from peptide hydrogels, bioactivity on decorin (FIGS. 6B, 15). The settings on record: pilot data, days 3 and 5. An excerpt:
The protein was not degraded.
In addition to release and retention rates, in analogous experiments the released and retained ChaseABC enzyme will also be assayed for bioactivity. Activity will be assessed through the efficacy of the sample to digest the small proteoglycan decorin as described previously.
Importantly, the protein was not degraded.

Series [2] in a line: Net peptide charge and isoelectric point (FIGS. 9-10). Format: physicochemical. The settings on record: pH 7. An excerpt: The peptide may be purified. For example, the peptide may be lyophilized. […] Other peptides are within the scope of the disclosure.
Exemplary peptides having a charge of +5 to +9 include […](d)[…], […](d)[…], and […](d)[…]. In other embodiments, the purified peptide may be substantially neutral. […] Net charge may be selected by peptide design. Design of electrostatic charge in the peptide hydrogel may allow control of charge interaction with cell membrane and proteins.

Turning to `O=C(O)C(F)(F)F` [trifluoroacetic acid], the pKa entry in series [1] is on record as “about 0”. `NCCCC[C@H](N)C(=O)O` [lysine]: the “side chain pKa” value in series [1] is “about 10.5”. Consider chondroitinase ABC [ChaseABC], for which, in the series on decorin, the “bioactivity of released enzyme on decorin substrate” value is listed as “release of bioactive enzyme from the gel was demonstrated”. On to “VEVSVSVEV(d)PPTEVSVEVEV (VEVSVSVEV[dP]PTEVSVEVEV)”, for which, in series [2], the net charge result is “net negative charge”.

The values above are taken from patent US20250134946A1 (GEL4MED, INC., priority 2021, published 2025).
